Patent US8968703B2, “13C-MR detection using hyperpolarised 13C-fructose” (GE Healthcare Limited, priority 2009, dated 2015)

Legend:
[1] = 3T T1 studies of hyperpolarized [2-13C]-fructose in solution; assay type: physicochemical; conditions: for T1 sec (3T): C2 fructose carbon, solution spectra, monoexponential fit
Method: T1 studies were performed using a 3T GE Signa™ scanner (GE Healthcare. Waukesha, Wis.) equipped with the MNS (multinuclear spectroscopy) hardware package. Solution spectra were acquired using a 5° non localised pulse, TR=3 s and fit to a monoexponential. The RF coil used in these experiments was a dual-tuned ^1H-^13C coil with a quadrature ^13C channel and linear ^1H channel construction based on an earlier design and also used in ^13C-pyruvate mouse imaging studies. For animal studies, T2-weighted fast spin echo images were acquired prior to MRSI studies to denote anatomy and place voxels on the region of interest. In vivo MRSI studies were carried out using a compressed sensing double spin 3D MRSI acquisition scheme as previously published by Hu S et al. (2008) Compressed sensing for resolution enhancement of hyperpolarized 13C flyback 3D-MRSI. J Magn Reson 192, 258-264, with a TE=140 ms. TR=215 ms, FOV=8 cm×8 cm, and 16×8 resolution. 500 μl of 80 mM [2-^13C]-fructose was injected similar to described by Albers M J et al. (2008) Hyperpolarized 13C lactate, pyruvate and alanine: noninvasice biomarkers for prostate cancer detection and grading. Cancer Res. 68, 8607-8615, for [1-^13C] pyruvate in a transgenic model of prostate cancer (TRAMP). These injections were compared to the standard [1-^13C]-pyruvate injection for the same voxel in a tumor region of interest.

[2] = 11.7T NMR studies of hyperpolarized [2-13C]-fructose (T1, percent polarization); assay type: physicochemical; conditions: for T1 sec (11.7T): C2 fructose carbon, mono-exponential fit of hyperpolarized signal decay; for % pol (corrected): percent polarization corrected for transfer time using T1 decay
Method: A 4.0M solution of 2-[^13C]-fructose (Isotec, Miamisburg, Ohio) in water containing 15 mM OX063 trityl radical (Oxford Instruments) was hyperpolarized on a Hypersense instrument (Oxford Instruments) as described by Ardenkjaer-Larsen et al (2003) Increase in signal-to-noise ratio of >10,000 times in liquid-state NMR. Proc. Natl. Acad. Sci. U.S.A. 100, 10158-10163. The frozen sample was dissolved in 1× phosphate buffered saline (PBS), with a resultant pH of 7.6, and transferred immediately to a 10 mm NMR tube.
NMR studies were performed on an 11.7T Varian INOVA spectrometer (125 MHz ^13C, Varian Instruments) using a 10 mm ^15N/[…]/^13C triple-tuned direct detect probe. Initially, a thermal spectrum was acquired for a natural abundance fructose sample in 1×PBS buffer at 37° C. (nt=9000, sw=30000, np=30000, TR=3.5 s, acq time=0.5 s) using an Ernst angle pulse (45 degrees). […] The C2 carbon resonances correspond to the isomeric distribution of the two ring forms (pyranose and furanose forms) of the fructose molecule.
For the acquisition of hyperpolarized ^13C spectra […] pulse hyperpolarized ^13C NMR spectra (1 average, spectral window=30000 Hz, number of points=30000, TR=3.5 s, acq time=0.5 s, total acq time=2 min 55 s) were acquired using a 5° pulse and proton decoupled using a waltz-16 decoupling scheme. Hyperpolarized studies were followed by acquisition of thermal data using nearly identical parameters, using a 90° tip angle and a repeat time of roughly four T1's (TR=76 s, nt=64). T1's were determined by performing a mono-exponential fit to the signal decay curve of the hyperpolarized compounds. Signal enhancement percent polarizations were calculated by comparing the hyperpolarized and thermal data sets and accounting for differences in tip angle and transients obtained. Solid state polarizations were calculated by correcting the enhancement for the transfer time from the polarizer using the T1 decay.

hexokinase = assay: NMR study of enzymatic conversion of hyperpolarized fructose to fructose-6-phosphate; assay type: biochemical; conditions: 400 U hexokinase
Method: For NMR studies of the enzymatic conversion of Fructose to fructose-6-phosphate, hyperpolarized [2-^13C]-fructose was reacted with 400 U of hexokinase (Sigma Aldrich) in the presence of 15 mM ATP, 50 mM TRIS and 13 mM MgCl2. The labelling and mechanism for transport and metabolism is shown below (FIG. 1), though in this enzymatic study the transport element has been removed and the enzyme activity was independently measured. Peaks corresponding to fructose-6-phosphate were identified using a natural abundance carbon spectrum, using a similar set of experimental parameters.

[3] = 11.7T NMR studies of hyperpolarized [2-13C]-fructose (T1, percent polarization); assay type: physicochemical; conditions: pH ranges 5.9-7.8

Row | T1 sec (3T) [1] [s] | T1 sec (11.7T) [2] [s] | % pol (corrected) [2] [%] | Structure (SMILES) | Time to conversion to fructose-6-phosphate after addition to hexokinase (hexokinase; 15 mM ATP, 50 mM TRIS, 13 mM MgCl2) [s] | Conversion of fructose to fructose-6-phosphate in thermal spectrum (hexokinase; thermal spectrum acquired over 85 minutes post DNP) | Relaxation times (T1) ([1]; at 3T) [s] | Relaxation times (T1) ([2]; at 11.7 T) [s] | Percent polarization, average over isomers ([2]; averages for the isomers of fructose) [%] | Isomeric ratio of fructose pyranose to furanose in solution ([2]; in solution) | T1 dependence on pH [3]
1 | 13.4 ± 0.4 | 15.5 ± 0.5 | 11.8 ± 2.0 | OC[C@H]1O[C@@](O)(CO)[C@@H](O)[C@@H]1O [A-fructofuranose] |  |  |  |  |  |  | 
2 |  |  |  | O=[13C](CO)[C@@H](O)[C@H](O)[C@H](O)CO [fructose, [2-^13C]-fructose] | ≤ 5 | fully converted | 13 to 14 | 15 to 16 | ~12 | approximately 77/23 | no T1 dependence on pH
3 | 13.4 ± 2.5 | 15.8 ± 0.5 | 11.6 ± 2.5 | OC[C@H]1O[C@](O)(CO)[C@@H](O)[C@@H]1O [β-fructofuranose] |  |  |  |  |  |  | 
4 | 14.5 ± 0.3 | 16.3 ± 0.5 | 12.0 ± 2.2 | OC[C@@]1(O)OC[C@@H](O)[C@@H](O)[C@@H]1O [β-fructopyranose] |  |  |  |  |  |  | 
